Assay results published in patent US8105845B2, “System and method for carrying out multiple binding reactions in an array format” (Bio-Rad Haifa Ltd., priority 2003, dated 2012).

Tests used:
[1] = biological target: Cytochrome-P450 (CYP) 2C19 (Homo sapiens, UniProt P33261); experiment: biochemical
[2] = biological target: T1, Cytochrome-P450 (CYP) 1A2 (Homo sapiens, UniProt P05177); experiment: biochemical
T1 sequence (P05177 1-516): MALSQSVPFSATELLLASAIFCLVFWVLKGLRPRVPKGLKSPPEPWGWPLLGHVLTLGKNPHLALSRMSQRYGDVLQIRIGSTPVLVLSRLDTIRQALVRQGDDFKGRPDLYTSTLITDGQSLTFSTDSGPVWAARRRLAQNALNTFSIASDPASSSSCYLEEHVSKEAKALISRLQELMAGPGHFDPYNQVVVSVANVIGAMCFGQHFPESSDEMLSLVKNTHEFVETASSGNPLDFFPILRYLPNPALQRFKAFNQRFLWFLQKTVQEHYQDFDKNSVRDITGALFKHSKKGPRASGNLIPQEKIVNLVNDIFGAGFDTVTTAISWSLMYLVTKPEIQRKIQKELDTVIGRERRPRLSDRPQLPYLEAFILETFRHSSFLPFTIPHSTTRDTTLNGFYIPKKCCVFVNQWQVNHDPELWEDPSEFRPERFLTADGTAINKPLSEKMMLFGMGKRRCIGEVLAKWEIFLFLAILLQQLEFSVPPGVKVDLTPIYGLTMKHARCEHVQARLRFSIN

[3] = biological target: Cytochrome-P450 (CYP) 2C9 (Homo sapiens, UniProt P11712); experiment: SPR array binding of compound targets to immobilized CYP450 enzyme probes
Sequence of Cytochrome-P450 (CYP) 2C9 (P11712 whole entry): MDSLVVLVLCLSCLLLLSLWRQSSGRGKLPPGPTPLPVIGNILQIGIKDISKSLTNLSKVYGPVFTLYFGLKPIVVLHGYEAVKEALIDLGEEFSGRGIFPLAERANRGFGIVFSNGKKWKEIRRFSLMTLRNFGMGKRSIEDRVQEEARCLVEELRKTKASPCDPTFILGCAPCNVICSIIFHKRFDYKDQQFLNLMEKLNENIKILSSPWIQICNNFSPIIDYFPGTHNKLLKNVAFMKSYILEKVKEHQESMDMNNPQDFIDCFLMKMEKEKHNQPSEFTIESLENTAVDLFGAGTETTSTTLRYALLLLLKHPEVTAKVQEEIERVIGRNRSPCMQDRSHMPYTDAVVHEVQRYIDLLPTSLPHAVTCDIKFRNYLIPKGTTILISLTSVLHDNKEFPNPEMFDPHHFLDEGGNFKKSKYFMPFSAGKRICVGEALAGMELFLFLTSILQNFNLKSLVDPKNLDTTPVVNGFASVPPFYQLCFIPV

[4] = biological target: Cytochrome-P450 (CYP) 2D6 (Homo sapiens, UniProt P10635); experiment: biochemical
Sequence of Cytochrome-P450 (CYP) 2D6 (P10635 whole entry): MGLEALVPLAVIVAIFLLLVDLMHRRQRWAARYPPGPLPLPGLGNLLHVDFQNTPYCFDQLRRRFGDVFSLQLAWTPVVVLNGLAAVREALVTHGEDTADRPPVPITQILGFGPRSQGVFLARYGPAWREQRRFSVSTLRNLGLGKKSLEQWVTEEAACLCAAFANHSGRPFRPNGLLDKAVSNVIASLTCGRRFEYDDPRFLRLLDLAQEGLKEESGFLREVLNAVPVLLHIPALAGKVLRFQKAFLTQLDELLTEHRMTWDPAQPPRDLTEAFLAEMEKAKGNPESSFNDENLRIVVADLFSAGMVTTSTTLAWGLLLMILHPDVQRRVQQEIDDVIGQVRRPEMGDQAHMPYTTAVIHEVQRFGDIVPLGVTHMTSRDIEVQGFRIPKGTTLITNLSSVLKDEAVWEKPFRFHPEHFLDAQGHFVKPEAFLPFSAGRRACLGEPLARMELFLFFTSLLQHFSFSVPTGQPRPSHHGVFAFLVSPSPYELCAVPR

Sequence of Cytochrome-P450 (CYP) 2C19 (P33261 whole entry): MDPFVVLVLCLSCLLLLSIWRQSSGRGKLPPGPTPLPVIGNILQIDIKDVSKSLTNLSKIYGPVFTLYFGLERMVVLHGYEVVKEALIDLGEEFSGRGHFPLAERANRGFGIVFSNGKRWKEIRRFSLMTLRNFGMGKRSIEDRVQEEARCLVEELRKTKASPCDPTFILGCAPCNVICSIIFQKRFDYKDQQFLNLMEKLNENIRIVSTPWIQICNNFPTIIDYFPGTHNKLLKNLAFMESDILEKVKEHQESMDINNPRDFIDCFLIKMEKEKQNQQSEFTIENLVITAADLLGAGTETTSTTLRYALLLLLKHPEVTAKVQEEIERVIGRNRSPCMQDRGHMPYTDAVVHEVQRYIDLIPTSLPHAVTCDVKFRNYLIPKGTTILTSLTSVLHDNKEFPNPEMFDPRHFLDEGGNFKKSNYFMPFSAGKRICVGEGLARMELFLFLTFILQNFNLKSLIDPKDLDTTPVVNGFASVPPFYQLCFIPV

CC(C)NCC(O)COc1cccc2ccccc12 (stereo not drawn) [Propranolol]
Kd [1]: 6.59 mM | Kd [2]: 0.873 mM | Kd [3]: 5.13 mM

O=C(O)Cc1ccccc1Nc1c(Cl)cccc1Cl [Diclofenac]
Kd [1]: 0.717 mM | Kd [2]: 14.2 mM | Kd [4]: 0.681 mM

COc1ccc2c(c1)[C@]13CCCC[C@@H]1[C@H](C2)N(C)CC3 [Dexomethorphan]
Kd [1]: 7.9 mM | Kd [4]: 60.4 mM | Kd [3]: 28.3 mM
